Data published in patent US7452997B2 (priority 2004, dated 2008).
pIC50: −log10 of the molar value.

target: T1, human CB1 receptor (Homo sapiens, UniProt P21554); test: biochemical; assay type: binding; conditions: not given
T1 construct: expressed in transfected cells; host or cells: SK-N-MC cells, stably transfected with pcDNA3 CB-1 (human); semi-purified membrane pellet
Procedure: (§1) Binding Assay for CB1 or CB2 Agonists or Inverse Agonists
(§2) The human CB1 and CB2 receptors were stably expressed in SK-N-MC cells transfected with pcDNA3 CB-1 (human) or pcDNA3 CB-2 (human). The cells were grown in T-180 cell culture flasks under standard cell culture conditions at 37° C. in a 5% CO2 atmosphere. The cells were harvested by trysinization and homogenized in a homogenization buffer (10 mM Tris, 0.2 mM MgCl2, 5 mM KCl, with protease inhibitors aprotinin, leupeptin, pepstatin A and bacitracin) and centrifuged (2000 g). The supernatant was then centrifuged in 2M sucrose (31,300 g) to produce a semi-purified membrane pellet. The pellet was resuspended in homogenization and store at −80° C.
On the day of the assay, the pellet was thawed on ice and diluted in assay buffer (50 mM Tris-HCl, 5 mM MgCl2, 2.5 mM EDTA, 0.5 mg/mL fatty acid free bovine serum albumin, pH 7.5). […] The plate was covered and incubated for 90 minutes at 30° C. The contents were then aspirated onto a Packard […] GF/C filter bottom plate prewet with 0.5% polyethyleneimine. The wells of the polypropylene plate were rinsed and aspirated seven times with a 0.9% saline-0.5% TWEEN 20 solution. The […] plate was dried, a scintillation cocktail was added to each well and the counts representing binding were quantitated in a TOPCOUNT scintillation counter.
(§3) The IC50 binding values for compounds tested were calculated by linear regression and were obtained from studies in which varying compound concentrations were used.

T1 sequence (P21554 whole entry): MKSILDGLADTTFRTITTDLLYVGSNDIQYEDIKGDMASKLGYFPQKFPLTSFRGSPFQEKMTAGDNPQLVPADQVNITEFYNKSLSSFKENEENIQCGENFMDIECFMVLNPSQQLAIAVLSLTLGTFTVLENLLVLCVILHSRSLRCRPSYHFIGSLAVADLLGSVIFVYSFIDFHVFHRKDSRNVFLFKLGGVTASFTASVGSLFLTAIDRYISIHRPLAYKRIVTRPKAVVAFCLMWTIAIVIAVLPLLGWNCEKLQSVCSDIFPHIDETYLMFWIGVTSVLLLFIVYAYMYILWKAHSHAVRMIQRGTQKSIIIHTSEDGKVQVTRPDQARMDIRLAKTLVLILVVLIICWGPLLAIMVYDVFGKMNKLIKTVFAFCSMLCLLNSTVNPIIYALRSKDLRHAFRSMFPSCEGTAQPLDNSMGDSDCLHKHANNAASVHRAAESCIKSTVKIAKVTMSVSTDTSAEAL

Structure (SMILES)	pIC50
CN(C)S(=O)(=O)NC1CCc2c(c(C(=O)NC3C4CC5CC(C4)CC3C5)nn2C2CCCCC2)C1 (centres unmarked) [compound 106]	4.90
O=C(NN1CCCCCC1)c1nn(-c2ccc(Cl)cc2Cl)c2c1CCC/C2=C\c1ccc(Cl)s1 [compound 388]	7.82
C[C@@H](NC(=O)c1nn(-c2ccc(Cl)cc2Cl)c2c1CCC/C2=C\c1ccoc1)c1ccccc1 [compound 358]	7.89
O=C(NN1CC2CCCC2C1)c1nn(-c2ccc(Cl)cc2Cl)c2c1CCC/C2=C\c1ccoc1 (centres unmarked) [compound 365]	7.80
O=C(N[C@H](CO)c1ccccc1)c1nn(-c2ccc(Cl)cc2Cl)c2c1CCCC2=Cc1ccsc1 [compound 356]	7.11
O=C(NN1CCCC1)c1nn(-c2ccc(Cl)cc2Cl)c2c1CCC/C2=C\c1ccco1 [compound 377]	7.37
CC1CCCC(C)N1NC(=O)c1nn(-c2ccc(Cl)cc2Cl)c2c1CCCC2=Cc1ccoc1 (centres unmarked) [compound 362]	7.42
O=C(NN1CCCC1)c1nn(-c2ccc(Cl)cc2Cl)c2c1CCCC2=Cc1ccc(Cl)s1 [compound 393]	7.37
CC12CCC(C1)C(C)(C)C2NC(=O)c1nn(C2CCCCC2)c2c1CC(=O)CC2 (centres unmarked) [Cpd 96, 1-cyclohexyl-5-oxo-4,5,6,7-tetrahydro-1H-indazole-3-carboxylic acid (1,3,3-trimethyl-bicyclo[2.2.1]hept-2-yl)-amide]	5.02
O=C(NC1C2CC3CC(C2)CC1C3)c1nn(C2CCCCC2)c2c1CC(C(=O)Nn1cnnc1)CC2 (centres unmarked) [compound 95]	5.19
O=C(NN1CCCCCC1)c1nn(-c2ccc(Cl)cc2Cl)c2c1CCC/C2=C\c1ccoc1 [compound 363]	7.89
O=C(NN1CC2CCCC2C1)c1nn(-c2ccc(Cl)cc2Cl)c2c1CCC/C2=C\c1ccsc1 (centres unmarked) [compound 350]	7.77
C[C@@H](NC(=O)c1nn(-c2ccc(Cl)cc2Cl)c2c1CCC/C2=C\c1ccc(Br)o1)C1CCCCC1 [compound 398]	7.32
C[C@@H](NC(=O)c1nn(-c2ccc(Cl)cc2Cl)c2c1CCCC2=Cc1ccc(Br)cc1)C1CCCCC1 [compound 382]	8.30
CC(C)(C)C1CCc2c(c(C(=O)NC3C4CC5CC(C4)CC3C5)nn2C2CCCCC2)C1 (centres unmarked) [compound 98]	4.69
CC(C)(C)C1CCc2c(c(C(=O)NCC34CC5CC(CC(C5)C3)C4)nn2C2CCCCC2)C1 (centres unmarked) [compound 102]	4.51
O=C(NN1CCCCCC1)c1nn(-c2ccc(Cl)cc2Cl)c2c1CCCC2=Cc1ccco1 [compound 373]	7.70
O=C(NN1CCCC1)c1nn(-c2ccc(Cl)cc2Cl)c2c1CCCC2=Cc1cccs1 [compound 345]	7.15
C[C@@H](NC(=O)c1nn(-c2ccc(Cl)cc2Cl)c2c1CCCC2=Cc1ccsc1)C1CCCCC1 [compound 351]	7.92
O=C(NCCN1CCOCC1)c1nn(Cc2ccccc2)c2c1CCCC2 [compound 175]	5.67
O=C(NN1CCCCC1)c1nn(-c2ccc(Cl)cc2Cl)c2c1CCC/C2=C\c1ccc(Cl)s1 [compound 387]	7.48
Cc1ccc(S(=O)(=O)NC2CCc3c(c(C(=O)NC4C5CC6CC(C5)CC4C6)nn3C3CCCCC3)C2)cc1 (centres unmarked) [compound 105]	5.07
CN(C(=O)NC1CCc2c(c(C(=O)NC3C4CC5CC(C4)CC3C5)nn2C2CCCCC2)C1)c1ccccc1 (centres unmarked) [compound 103]	5.70
O=C(NN1CCCCC1)c1nn(-c2ccc(Cl)cc2Cl)c2c1CCCC2=Cc1cccs1 [compound 342]	7.39
O=C(NN1CCCC1)c1nn(-c2ccc(Cl)cc2Cl)c2c1CCCC2=Cc1ccsc1 [compound 357]	7.68
O=C(NN1CC2CCCC2C1)c1nn(-c2ccc(Cl)cc2Cl)c2c1CCCC2=Cc1ccc(Br)cc1 (centres unmarked) [compound 380]	7.49
C[C@@H](NC(=O)c1nn(-c2ccc(Cl)cc2Cl)c2c1CCCC2=Cc1ccc(Br)cc1)c1ccccc1 [compound 383]	8.00
C[C@@H](NC(=O)c1nn(-c2ccc(Cl)cc2Cl)c2c1CCCC2=Cc1ccoc1)C1CCCCC1 [compound 360]	7.92

Structure (SMILES)	pIC50
O=C(NN1CCCCC1)c1nn(-c2ccc(Cl)cc2Cl)c2c1CCC/C2=C\c1ccco1 [compound 374]	7.72
C[C@@H](NC(=O)c1nn(-c2ccc(Cl)cc2Cl)c2c1CCCC2=Cc1ccc(Cl)s1)C1CCCCC1 [compound 385]	8.15
CC(c1ccccc1)n1nc(C(=O)N[C@@H](C)C2CCCCC2)c2c1CCCC2 (mixture of isomers) [Cpd 249, 1-(1-phenyl-ethyl)-4,5,6,7-tetrahydro-1H-indazole-3-carboxylic acid [(1S)-1-cyclohexyl-ethyl]-amide]	7.30
O=C(NN1CC2CCCC2C1)c1nn(-c2ccc(Cl)cc2Cl)c2c1CCCC2=Cc1cccs1 (centres unmarked) [compound 346]	7.48
C[C@@H](NC(=O)c1nn(-c2ccc(Cl)cc2Cl)c2c1CCC/C2=C\c1ccsc1)c1ccccc1 [compound 353]	7.80
CC1CCCC(C)N1NC(=O)c1nn(-c2ccc(Cl)cc2Cl)c2c1CCC/C2=C\c1ccc(Cl)s1 (centres unmarked) [compound 389]	7.85
C[C@@H](NC(=O)c1nn(-c2ccc(Cl)cc2Cl)c2c1CCCC2=Cc1ccc(Br)o1)c1ccccc1 [compound 397]	7.23
C[C@@H](NC(=O)c1nn(-c2ccc(Cl)cc2Cl)c2c1CCC/C2=C\c1ccc(Br)cc1)c1ccccn1 [compound 381]	7.82
C[C@@H](NC(=O)c1nn(-c2ccc(Cl)cc2Cl)c2c1CCCC2=Cc1cccs1)C1CCCCC1 [compound 341]	7.70
O=C(NN1CCCC1)c1nn(-c2ccc(Cl)cc2Cl)c2c1CCCC2=Cc1ccoc1 [compound 368]	7.41
O=C(NN1CCCCC1)c1nn(-c2ccc(Cl)cc2Cl)c2c1CCC/C2=C\c1ccc(Br)cc1 [compound 384]	7.68
O=C(NN1CC2CCCC2C1)c1nn(-c2ccc(Cl)cc2Cl)c2c1CCC/C2=C\c1ccco1 (centres unmarked) [compound 376]	7.80
O=C(NN1CCCCCC1)c1nn(-c2ccc(Cl)cc2Cl)c2c1CCCC2=Cc1ccc(F)cc1 [compound 339]	8.10
O=C(NN1CCCCCC1)c1nn(-c2ccc(Cl)cc2Cl)c2c1CCCC2=Cc1cccs1 [compound 343]	7.43
O=C(NC(Cc1ccc(OCc2ccccc2)cc1)C(=O)O)c1nn(Cc2ccccc2)c2c1CCCC2 (centres unmarked) [compound 76]	5.71
C[C@@H](NC(=O)c1nn(-c2ccc(Cl)cc2Cl)c2c1CCC/C2=C\c1ccc(Cl)s1)c1ccccc1 [compound 386]	7.96
O=C(NN1CC2CCCC2C1)c1nn(-c2ccc(Cl)cc2Cl)c2c1CCC/C2=C\c1ccc(Cl)s1 (centres unmarked) [compound 390]	7.70
O=C(NC1CCCCCCC1)c1nn(C2CCCCC2)c2c1CCCC2 [compound 128]	8.00
O=C(N[C@@H]1C2CCC(C2)[C@@H]1COCc1ccccc1Br)c1nn(C2CCCCC2)c2c1CCCC2 (some centres unmarked) [compound 108]	5.62
C[C@@H](NC(=O)c1nn(-c2ccc(Cl)cc2Cl)c2c1CCCC2=Cc1ccco1)c1ccccc1 [compound 371]	7.41
CC(C)(C)OC(=O)NC1CCc2nn(C3CCCCC3)c(C(=O)NC3C4CC5CC(C4)CC3C5)c2C1 (centres unmarked) [compound 84]	6.40
CC1CCCC(C)N1NC(=O)c1nn(-c2ccc(Cl)cc2Cl)c2c1CCCC2=Cc1cccs1 (centres unmarked) [compound 344]	7.28
O=C(NN1CCCCC1)c1nn(-c2ccc(Cl)cc2Cl)c2c1CCCC2=Cc1ccsc1 [compound 347]	7.74
C[C@H](NC(=O)c1nn(-c2ccc(Cl)cc2Cl)c2c1CCCC2=Cc1ccc(F)cc1)c1ccccc1 [compound 308]	7.72
O=C(NN1CCCCCC1)c1nn(-c2ccc(Cl)cc2Cl)c2c1CCC/C2=C\c1ccsc1 [compound 348]	7.96
O=C(NN1CCCCC1)c1nn(-c2ccc(Cl)cc2Cl)c2c1CCC/C2=C\c1ccoc1 [compound 364]	7.80
CC1CCCC(C)N1NC(=O)c1nn(-c2ccc(Cl)cc2Cl)c2c1CCC/C2=C\c1ccsc1 (centres unmarked) [compound 349]	7.40

target: human CB2 receptor (Homo sapiens, UniProt P34972); test: Binding assay, cannabinoid CB2 receptor ([3H]-CP-55,940 displacement); conditions: Cannabinoid CB2 Receptor Binding IC50, human CB2 receptor, SK-N-MC cell membranes, radioligand CP-55,940 0.2 nM
Sequence (P34972 whole entry): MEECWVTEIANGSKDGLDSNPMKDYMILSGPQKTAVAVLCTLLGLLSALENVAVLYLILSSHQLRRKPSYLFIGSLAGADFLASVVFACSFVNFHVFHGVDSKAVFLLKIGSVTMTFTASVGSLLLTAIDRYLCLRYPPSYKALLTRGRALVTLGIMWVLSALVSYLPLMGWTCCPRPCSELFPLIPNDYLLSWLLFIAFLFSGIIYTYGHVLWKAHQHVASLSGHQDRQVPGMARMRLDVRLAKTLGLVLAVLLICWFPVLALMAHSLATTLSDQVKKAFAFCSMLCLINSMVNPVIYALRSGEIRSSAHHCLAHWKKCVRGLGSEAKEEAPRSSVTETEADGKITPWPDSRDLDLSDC
Procedure: as §1, §2
On the day of the assay, the pellet was thawed on ice and diluted in assay buffer (50 mM Tris-HCl, 5 mM MgCl2, 2.5 mM EDTA, 0.5 mg/mL fatty acid free bovine serum albumin, pH 7.5). The diluted membrane was added with buffer, test compound or standard and the radioligand [H]^3+-CP-55,940_(0.2 nM) to the wells of a 96-well polypropylene plate. Non-specific binding was measured in wells containing 10 uM WIN 55,212. The plate was covered and incubated for 90 minutes at 30° C. The contents were then aspirated onto a Packard UNIFILTER GF/C filter bottom plate prewet with 0.5% polyethyleneimine. The wells of the polypropylene plate were rinsed and aspirated seven times with a 0.9% saline-0.5% TWEEN 20 solution. The UNIFILTER plate was dried, a scintillation cocktail was added to each well and the counts representing binding were quantitated in a TOPCOUNT scintillation counter.
as §3

Structure (SMILES)	pIC50
CCOC(=O)C1CCc2c(c(C(=O)NN3CCCCC3)nn2C2CCCCC2)C1 (centres unmarked) [compound 229]	5.89
C[C@@H](NC(=O)c1nn(-c2ccccc2)c2c1CC(C(C)(C)C)CC2)C1CCCCC1 (some centres unmarked) [compound 114]	6.28
O=C(Nc1nn(Cc2ccccc2)c2c1CCCC2)NC12CC3CC(CC(C3)C1)C2 [compound 337]	7.10
CC(C)(C)C1CCc2c(c(C(=O)NC34CC5CC(CC(C5)C3)C4)nn2-c2ccccc2)C1 (centres unmarked) [compound 113]	6.11
